The values that follow are results of earlier work, collected in patent US20200338016A1, “COMBINATION BROAD-SPECTRUM ANTIBIOTIC PREPARATIONS FOR DRUG-RESISTANT PATHOGENS” (priority 2019, published 2020).

Series [1] concerns antibiotic-resistant bacteria. To be noted: against antibiotic-resistant bacteria.
Series [2] deals with antibiotic resistant bacteria. To be noted: four antibiotic resistant bacteria.
Series [3] relates to antibiotic resistant bacteria. To be noted: four strains of antibiotic resistant bacteria; extracted from horseradish.
Series [4] has as its system extensively multidrug resistant Acinetobacter baumannii.
The test system of series [5] is multidrug-resistant Acinetobacter baumannii.
Series [6] has as its system MRSA. To be noted: for MBEC: Minimal Biofilm Eradication Concentration, single agent; for MIC: Minimal Inhibitory Concentration.
The subject of series [7] is antibiotic resistant Staphylococcus aureus.
The subject of series [8] is antibiotic resistant C. albicans.
The subject of series [9] is methicillin-resistant Staphylococcus aureus. To be noted: MRSA.
Series [10] relates to antibiotic-resistant streptococcus. To be noted: 32 strains of antibiotic-resistant streptococcus.
In series [11] the test system is multidrug resistant Acinetobacter baumannii. To be noted: six strains of multidrug resistant Acinetobacter baumannii.
The test system of series [12] is Aspergillus niger (ATCC 10578).
Series [13] has as its system Staphylococcus aureus (NCTC 6571).
In series [14] the test system is Escherichia coli (NCTC 10418).
In series [15] the test system is Proteus vulgaris (NCTC 4175).
The subject of series [16] is Candida albicans (ATCC 10231).
The test system of series [17] is Bacillus subtilis (NCTC 8236).
Series [18] deals with multidrug resistant Klebsiella pneumonia. To be noted: twenty strains of multidrug resistant Klebsiella pneumonia.
In series [19] the test system is methicillin-resistant Staphylococus aureus.

Like-named read-outs stand apart in the source and are kept apart here.

As for theasinesin A, the “antibiotic properties (in words)” value in [1] is on record as “antibiotic properties”.
Take `Cn1cnc2c1c(=O)[nH]c(=O)n2C` [theobromine]: the “antibiotic properties (in words)” value in series [1] is “antibiotic properties”.
Consider `O=c1c(O)c(-c2ccc(O)cc2)oc2cc(O)cc(O)c12` [kaempferol], for which, in series [2], the concentration that kills was 5 milligrams per milliliter. Further, the “antibiotic properties (in words)” value in series [1] is given as “antibiotic properties”.
Take `O=c1cc(-c2ccc(O)c(O)c2)oc2cc(O)cc(O)c12` [luteolin]: the concentration that kills in [2] is 5 milligrams per milliliter.
As for `S=C=NCCc1ccccc1` [phenylethyl isothiocyanate], the concentration that kills in series [3] was 2000 microgram per milliliter.
Turning to `C[C@H]1[C@H]2CC[C@H]3[C@@H]4CC=C5C[C@@H](N(C)C)CC[C@]5(C)[C@H]4CC[C@]23CN1C` [conessine], the concentration that inhibits in [4] is listed as 10 milligrams per liter.
Take `O=c1cc(-c2ccccc2)oc2c(O)c(O)cc(O)c12` [norwogonin]: the concentration that inhibits in series [5] is 1,000 micrograms per milliliter.
`Oc1cc(O)c2c(c1)O[C@H](c1cc(O)c(O)c(O)c1)[C@H](O)C2` [epigallocatechin]: in [1], the “antibiotic properties (in words)” value is listed as “antibiotic properties”.
As for `O=C(O[C@@H]1Cc2c(O)cc(O)cc2O[C@@H]1c1ccc(O)c(O)c1)c1cc(O)c(O)c(O)c1` [epicatechin gallate], the “antibiotic properties (in words)” value in series [1] is “antibiotic properties”.
As to `C=CCc1ccc(O)c(OC)c1` [Eugenol], the MBC in [6] (Minimal Bactericidal Concentration) is on record as 0.08 percentage of volume. In series [6], the MBEC is listed as 0.08 percentage of volume and the MIC is on record as 0.04 percentage of volume.
Take pinene: in series [7], the concentration that inhibits was 20 microliters per milliliter.
Regarding `CC(C)=CCC/C(C)=C/CO` [geraniol], the concentration that inhibits in [8] is on record as 1580 micrograms per milliliter.
On to `O=C(O[C@@H]1Cc2c(O)cc(O)cc2O[C@@H]1c1ccc(O)cc1)c1cc(O)c(O)c(O)c1` [epiafzelechin gallate], for which the “antibiotic properties (in words)” value in series [1] was “antibiotic properties”.
`CC1(C)[C@@H](O)CC[C@]2(C)[C@H]3C(=O)C=C4[C@@H]5C[C@@](C)(C(=O)O)CC[C@]5(C)CC[C@@]4(C)[C@]3(C)CC[C@@H]12` [glycerrhetinic acid]: the concentration that kills in series [9] was 0.223 µM.
Take `O=C(O[C@@H]1O[C@@H]2COC(=O)c3cc(O)c(O)c(O)c3-c3c(cc(O)c(O)c3O)C(=O)O[C@H]([C@H]1O)[C@@H]2O)c1cc(O)c(O)c(O)c1` [corilagin]: the concentration that inhibits in series [5] was 1,000 micrograms per milliliter.
With `Cc1ccc(C(C)C)cc1O` [Carvacrol], in [6], the MBEC is given as 0.04 percentage of volume and the MIC was 0.02 percentage of volume. Also, the concentration that inhibits in series [10] was 256 micrograms per milliliter.
`O=c1c(O)cc([C@H]2Oc3cc(O)cc(O)c3C[C@H]2O)cc2c([C@H]3Oc4cc(O)cc(O)c4C[C@H]3O)cc(O)c(O)c12` [theaflavin]: the concentration that inhibits in series [11] is reported as 512 milligrams per liter. The “antibiotic properties (in words)” value in series [1] is on record as “antibiotic properties”.
For the compound catechin gallate, in [1], the “antibiotic properties (in words)” value is recorded as “antibiotic properties”.
As to catechin, the concentration that kills in [2] is 5 milligrams per milliliter. Also, the “antibiotic properties (in words)” value in [1] is “antibiotic properties”.
For `COc1cc(/C=C/C(=O)O)ccc1O` [ferulic acid], the concentration that kills in series [2] was 5 milligrams per milliliter.
Take `Oc1ccc([C@H]2Oc3cc(O)cc(O)c3C[C@H]2O)cc1` [epiafzelechin]: the “antibiotic properties (in words)” value in series [1] was “antibiotic properties”.
Take piliostigmol: the “inhibition (in words)” value in series [12], in [13], in series [14], in series [15], in series [16] and in [17] was “inhibits” in each case.
Turning to trechebulin, the concentration that inhibits in series [5] was 1,000 micrograms per milliliter.
`O=c1c(O)c(-c2ccc(O)c(O)c2)oc2cc(O)cc(O)c12` [quercetin]: the concentration that kills in series [2] is given as 5 milligrams per milliliter; in series [18], 1024 microgram per milliliter. Further, the “antibiotic properties (in words)” value in series [1] is recorded as “antibiotic properties”.
On to `O=C(O[C@@H]1Cc2c(O)cc(O)cc2O[C@@H]1c1cc(O)c(O)c(O)c1)c1cc(O)c(O)c(O)c1` [EGCG, epigallocatechin gallate], for which the concentration that kills in series [18] was 1024 microgram per milliliter. In series [1], the “antibiotic properties (in words)” value is listed as “antibiotic properties”.
As to `Cn1c(=O)c2c(ncn2C)n(C)c1=O` [caffeine], the “antibiotic properties (in words)” value in series [1] was “antibiotic properties”.
Turning to `O=C(O)/C=C/c1ccc(O)c(O)c1` [caffeic acid], the concentration that kills in series [18] is recorded as 1024 microgram per milliliter.
On to `C=CC(C)(O)CCC=C(C)C` (centres unmarked) [linalool], for which the concentration that inhibits in series [8] is listed as 1580 micrograms per milliliter.
On to theaflavin gallate, for which the “antibiotic properties (in words)” value in series [1] is on record as “antibiotic properties”.
Regarding `O=C(/C=C/c1ccc(O)c(O)c1)O[C@@H]1C[C@](O)(C(=O)O)C[C@@H](O)[C@H]1O` [chlorogenic acid], the concentration that kills in [2] is 5 milligrams per milliliter. The “antibiotic properties (in words)” value in series [1] was “antibiotic properties”.
As to `Oc1cc(O)c2c(c1)O[C@H](c1cc(O)c(O)c(O)c1)[C@@H](O)C2` [gallocatechin], the “antibiotic properties (in words)” value in series [1] is reported as “antibiotic properties”.
For the compound `Cn1c(=O)c2[nH]cnc2n(C)c1=O` [theophylline], the “antibiotic properties (in words)” value in series [1] was “antibiotic properties”.
Turning to `CC(C)=CCCC(C)=CC=O` [citral], the concentration that kills in [19] is 0.06%.
For `O=C(O[C@@H]1Cc2c(O)cc(O)cc2O[C@@H]1c1cc(O)c(=O)c2c(O)c(O)cc([C@H]3Oc4cc(O)cc(O)c4C[C@H]3OC(=O)c3cc(O)c(O)c(O)c3)c2c1)c1cc(O)c(O)c(O)c1` [theaflavin digallate], the “antibiotic properties (in words)” value in series [1] is reported as “antibiotic properties”.
